Literature values in paper PMC3889329 (Diabetes Therapy, 2013).

Tested on: healthy subjects
Conditions: cited from earlier work

**Q.** Which “Maximal UGE” value (200–800 mg qd, healthy subjects) does the source give for `Cc1ccc([C@@H]2O[C@H](CO)[C@@H](O)[C@H](O)[C@H]2O)cc1Cc1ccc(-c2ccc(F)cc2)s1` [Canagliflozin] here?
**A.** 70 g/day

**Q.** For `OC[C@H]1O[C@@H](c2ccc(F)c(Cc3cc4ccccc4s3)c2)[C@H](O)[C@@H](O)[C@@H]1O` [Ipragliflozin], which “Maximum UGE” value (multiple doses of 5–600 mg, healthy volunteers) is on record?
**A.** approximately 59 g/day
